Starred links: 1 amine or outer side, 2 acyl side, 3 side chain; linkers in the order of their positions; H or OH if unused. Positions of bridges follow the written chain, without caps; N, C: chain ends. Non-standard residues stand in square brackets, D forms with d. Residues, ends and D or L forms follow the SMILES beside them. Trp(5-F) = N[C@@H](Cc1c[nH]c2ccc(F)cc12)C(=O)O; Phe(4-CH2NH2) = NCc1ccc(C[C@H](N)C(=O)O)cc1; X3 = O=C(CCSCc1cc(F)cc(CSCCN[*:1])c1)[*:2]; Heptanedioyl = O=C(CCCCCC(=O)[*:2])[*:1]; X4 = O=C(CCSCc1cccc(CSCCN[*:1])c1)[*:2]; Glutaryl = O=C(CCCC(=O)[*:2])[*:1]; aThr = C[C@H](O)[C@H](N)C(=O)O; αMeP = C[C@@]1(C(=O)O)CCCN1; Dap = NC[C@H](N)C(=O)O; AEA = NCCOCC(=O)O
Assays:
PCSK9 [1] = biological target: T1, PCSK9 (Homo sapiens (Human), UniProt Q8NBP7); test: PCSK9 Alexa FRET Standard assay (displacement of AlexaFluor647 tagged cyclic peptide Reagent A); assay type: binding; conditions: PCSK9 Alexa FRET Standard assay, 0.5 nM PCSK9, 20 nM AF cyclic peptide Reagent A; read-out: IC50
T1 sequence (Q8NBP7 153-692): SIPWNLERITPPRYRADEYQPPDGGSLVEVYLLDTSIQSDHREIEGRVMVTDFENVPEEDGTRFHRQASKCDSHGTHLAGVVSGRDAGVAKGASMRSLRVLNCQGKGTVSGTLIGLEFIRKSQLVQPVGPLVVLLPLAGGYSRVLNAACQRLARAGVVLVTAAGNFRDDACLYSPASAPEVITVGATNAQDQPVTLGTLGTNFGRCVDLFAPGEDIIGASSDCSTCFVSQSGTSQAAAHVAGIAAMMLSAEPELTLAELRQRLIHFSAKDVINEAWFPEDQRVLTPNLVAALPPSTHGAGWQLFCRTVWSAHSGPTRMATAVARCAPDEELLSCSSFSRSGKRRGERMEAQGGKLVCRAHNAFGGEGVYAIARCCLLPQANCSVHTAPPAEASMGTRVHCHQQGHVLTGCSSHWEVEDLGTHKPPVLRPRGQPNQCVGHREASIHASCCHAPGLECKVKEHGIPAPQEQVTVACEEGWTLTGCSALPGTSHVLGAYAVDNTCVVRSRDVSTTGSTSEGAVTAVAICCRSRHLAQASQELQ
Procedure, shortened: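 TR-FRET displacement: 0.5 nM biotinylated PCSK9 with 1.25 nM Strep-Eu and 20 nM AlexaFluor-tagged cyclic peptide (final) in 50 mM HEPES pH 7.4, 0.15 M NaCl, 5 mM CaCl2, 0.01% BSA, 0.01% P20, ≥2 h at room temperature. IC50 from sigmoidal fit, converted to Ki via peptide KD; falling Eu counts flagged false positives.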

PCSK9 [2] = biological target: T1, PCSK9; test: PCSK9 Alexa FRET Plus assay (displacement of AlexaFluor647 tagged cyclic peptide Reagent B); assay type: binding; conditions: Alexa FRET Plus, 0.5 nM PCSK9, 960 nM AF cyclic peptide Reagent B; read-out: IC50
Method: A solution containing 1 nM biotinylated PCSK9+2.5 nM Lance Streptavidin Europium (Strep-Eu) was made in 50 mM HEPES pH 7.4, 0.15 M NaCl, 5 mM CaCl2), 0.01% BSA, and 0.01% Surfactant P20. A separate solution containing 1920 nM of the AlexaFluor tagged cyclic peptide was made in the same buffer system. An Echo was used to transfer 0.075 ul of compound plus 0.675 ul of DMSO to each well of an assay plate followed by the addition of 15 ul of PCSK9+Stept-Eu and 15 ul of AF peptide. The final assay volume was 30.750 ul containing 0.5 nM PCSK9, 1.25 nM Strep-Eu, and 960 nM AF cyclic peptide. The reaction was incubated at room temperature for at least two hours prior to fluorescence measurements using an Envision Multilabel Reader. IC50 values were determined by fitting data to a sigmoidal dose-response curve using nonlinear regression. Ki was then calculated from the IC50 and the KD of AF cyclic peptide. Counts (B-counts) of the europium-labeled PCSK9 were followed to observe if compounds were adversely affecting PCSK9. A fall off of the B-counts likely indicated a false positive of inhibition. Data from this procedure was reported as “P=‘numerical value’ (nanomolar)”

Compound | IC50 (PCSK9 [1]) [nM] | IC50 (PCSK9 [2]) [nM]
NC(=O)[C@@H]1Cc2ccc(cc2)CNC(=O)CCCC(=O)NCC(=O)N[C@@H](Cc2c[nH]c3ccc(F)cc23)C(=O)N[C@@H](Cc2c[nH]c3ccc(F)cc23)C(=O)N[C@@H](CC(=O)O)C(=O)N[C@@H](Cc2cnc[nH]2)C(=O)N[C@@H](Cc2ccc(O)cc2)C(=O)N1 [Compound 437] (G[Trp(5-F)][Trp(5-F)]DHY[Phe(4-CH2NH2)]-NH2; linker N-7 via Glutaryl) | 0.11 to 100 | 100 to 500
COc1ccc(C[C@@H]2NC(=O)[C@H]([C@H](C)O)NC(=O)[C@H]3CCCN3C(=O)[C@H](Cc3c[nH]c4ccc(F)cc34)NC(=O)[C@H](Cc3c[nH]c4ccc(F)cc34)NC(=O)[C@@H](C)NC(=O)[C@H](CCCCN)NC(=O)CCSCc3cccc(c3)CSCCNC(=O)[C@]3(C)CCCN3C2=O)cc1 [Compound 103] (cyclo(K[dA][Trp(5-F)][Trp(5-F)][dP][aThr]Y(Me)[αMeP][X4])) | 0.11 to 100 | 500 to 5000
COc1ccc(C[C@@H]2NC(=O)[C@H](Cc3cnc[nH]3)NC(=O)[C@H](CC(=O)O)NC(=O)[C@H](Cc3c[nH]c4ccc(F)cc34)NC(=O)[C@H](Cc3c[nH]c4ccc(F)cc34)NC(=O)[C@@H](C)NC(=O)[C@H](CNC(=O)COCCN)NC(=O)CCSCc3cc(F)cc(c3)CSCCNC(=O)[C@]3(C)CCCN3C2=O)cc1 [Compound 423] (cyclo(DHY(Me)[αMeP][X3][Dap](AEA)[dA][Trp(5-F)][Trp(5-F)])) | 0.11 to 100 | 0.1 to 100
COc1ccc(C[C@@H]2NC(=O)[C@@H]3CCCC/C=C\CC[C@@]4(CCCN4C2=O)C(=O)NCCSCc2cccc(c2)CSCCC(=O)N[C@@H](C)C(=O)N[C@H](C)C(=O)N[C@H]2Cc4cccc(c4)CNC(=O)CC[C@@H](C(=O)N3)N3C(=O)[C@@H](NC2=O)C3c2c[nH]c3ccc(F)cc23)cc1 (stereo partly shown) [Compound 524] | 100 to 1000 | 500 to 5000
CCCCCCCCCCCCCCCC(=O)N[C@@H](CCC(=O)NCCOCCOCCC(=O)NCCOCCOCC(=O)NCCCC[C@H](NC(=O)COCCOCCOCCOCCOCCOCCOCCOCCOCCOCCOCCOCCNC(=O)[C@@H]1CSCc2cccc(c2)CSCCC(=O)N[C@@H](CCCCN)C(=O)N[C@H](C)C(=O)N[C@@H](Cc2c[nH]c3ccc(F)cc23)C(=O)N[C@@H](Cc2c[nH]c3ccc(F)cc23)C(=O)N[C@@H](CC(=O)O)C(=O)N[C@@H](Cc2cnc[nH]2)C(=O)N[C@@H](Cc2ccc(O)cc2)C(=O)N2CCC[C@@]2(C)C(=O)N1)C(N)=O)C(=O)O [Compound 474] | 1000 to 12100 | 500 to 5000
COc1ccc(C[C@@H]2NC(=O)[C@H](Cc3cnc[nH]3)NC(=O)[C@H](CC(=O)O)NC(=O)[C@H](Cc3c[nH]c4ccc(F)cc34)NC(=O)[C@H](Cc3c[nH]c4ccc(F)cc34)NC(=O)[C@@H](C)NC(=O)CCCCCC(=O)NCc3ccc(cc3)C[C@@H](C(N)=O)NC(=O)[C@]3(C)CCCN3C2=O)cc1 [Compound 440] ([dA][Trp(5-F)][Trp(5-F)]DHY(Me)[αMeP][Phe(4-CH2NH2)]-NH2; linker N-8 via Heptanedioyl) | 100 to 1000 | 100 to 500
COc1ccc(C[C@@H]2NC(=O)[C@H]([C@@H](C)O)NC(=O)[C@@H]3C[C@H](F)CN3C(=O)[C@H](Cc3c[nH]c4ccc(F)cc34)NC(=O)[C@H](Cc3c[nH]c4ccc(F)cc34)NC(=O)[C@@H](C)NC(=O)[C@H](CCCCN)NC(=O)[C@@H](NC(C)=O)CCC/C=C\Cc3ccc(cc3)C[C@@H](C(N)=O)NC(=O)[C@]3(C)CCCN3C2=O)cc1 [Compound 137] | 21000 to 50000 | 500 to 5000
COc1ccc(C[C@@H]2NC(=O)[C@H]([C@H](C)O)NC(=O)[C@@H]3CCCc4cn(nn4)CC[C@H](NC(=O)[C@@H](C)NC(=O)[C@H](C)NC(=O)CCSCc4cccc(c4)CSCCNC(=O)[C@]4(C)CCCN4C2=O)C(=O)N[C@@H](Cc2c[nH]c4ccc(F)cc24)C(=O)N3)cc1 [Compound 525] | 100 to 1000 | 500 to 5000
